Five compounds from US8293979B2, “Weed controller metabolism proteins, genes, thereof and use of the same” (Sumitomo Chemical Company, Limited, priority 2001, dated 2012) can be followed below.

In data set [1] the test system is present invention protein (A1). As to the kind of experiment: Metabolism of compounds by the present invention protein (A1), reaction solution, HPLC. In kind it is in vitro ADME, Streptomyces phaeochromogenes IFO12898. To be noted: 12.5 ppm of compound, components A, B, C, 20 μl supernatant fraction of Example 4(2), 30° C. for 10 minutes. As to the method:
There was prepared 100 μl of a reaction solution of 50 mM potassium phosphate buffer (pH7.0) containing 5 ppm of compound (XII), 3 mM of […] (hereinafter, referred to as “component A”) (Oriental Yeast Company), 1 mg/ml of a ferredoxin derived from spinach (hereinafter referred to as “component B”) (Sigma Company), 0.15 U/ml of ferredoxin reductase (hereinafter, referred to as “component C”) (Sigma Company) and 20 μl of the supernatant fraction recovered in Example 4(2). The reaction solution was maintained at 30° C. for 10 minutes. Further, there was prepared and maintained similarly 100 μl of a reaction solution of a 50 mM potassium phosphate buffer (pH 7.0) having no addition of at least one component utilized in the composition of the above reaction solution, selected from component A, component B, component C and the supernatant fraction prepared in Example 4(2). Ten microliters (10 μl) of 2N HCl and 500 μl of ethyl acetate were added and mixed into each of the reaction solutions after the maintenance. The resulting reaction solutions were centrifuged at 8,000×g to recover 490 μl of the ethyl acetate layer. After drying the ethyl acetate layers under reduced pressure, the residue was dissolved in 100 μl of 50 mM of potassium phosphate buffer (pH7.0). Forty microliters (40 μl) of the fraction solutions (hereinafter, the fraction solution derived from the reaction solution containing component A, component B, component C and 20 μl of supernatant fraction recovered in Example 4(2) is referred to as “(XII) metabolism solution (A1);” further, the fraction solution derived from the reaction solution containing no component A, no component B, no component C and no supernatant fraction recovered in Example 4(2) is referred to as “(XII) control solution (A1)”) were analyzed on a HPLC. Compared to the concentration of compound (XII) detected from (XII) control solution (A1), the concentration of compound (XII) detected from (XII) metabolism solution (A1) was lower. Further a peak, which was not detected from the (XII) control solution (A1), was detected from the (XII) metabolism solution (A1). Mass spectrometry was conducted for the compound contained in such a peak. The mass of the compound contained in such a peak was 14 smaller than the mass of compound (XII).
Other than utilizing 5 ppm of compound (XIII) instead of 5 ppm of compound (XII), reaction solutions were prepared and maintained similarly to the method described in Example 41(2). […] Compared to the concentration of compound (XIII) detected from (XIII) control solution (A1), the concentration of compound (XIII) detected from (XIII) metabolism solution (A1) was lower. Further a peak, which was not detected from the (XIII) control solution (A1), was detected from the (XIII) metabolism solution (A1). […]

Data set [2] concerns present invention protein (A11). As to the kind of experiment: Metabolism of compounds by the present invention protein (A11), reaction solution, HPLC. The format is in vitro ADME, Streptomyces nogalator IFO13445. To be noted: 12.5 ppm of compound, components A, B, C, 20 μl supernatant fraction of Example 32(2), 30° C. for 10 minutes. As to the method: There was prepared 100 μl of a reaction solution of 50 mM potassium phosphate buffer (pH7.0) containing 5 ppm of compound (XII), 3 mM of […] (hereinafter, referred to as “component A”) (Oriental Yeast Company), 1 mg/ml of a ferredoxin derived from spinach (hereinafter referred to as “component B”) (Sigma Company), 0.15 U/ml of ferredoxin reductase (hereinafter, referred to as “component C”) (Sigma Company) and 20 μl of the supernatant fraction recovered in Example 4(2). The reaction solution was maintained at 30° C. for 10 minutes. Further, there was prepared and maintained similarly 100 μl of a reaction solution of a 50 mM potassium phosphate buffer (pH 7.0) having no addition of at least one component utilized in the composition of the above reaction solution, selected from component A, component B, component C and the supernatant fraction prepared in Example 4(2). Ten microliters (10 μl) of 2N HCl and 500 μl of ethyl acetate were added and mixed into each of the reaction solutions after the maintenance. The resulting reaction solutions were centrifuged at 8,000×g to recover 490 μl of the ethyl acetate layer. After drying the ethyl acetate layers under reduced pressure, the residue was dissolved in 100 μl of 50 mM of potassium phosphate buffer (pH7.0). Forty microliters (40 μl) of the fraction solutions (hereinafter, the fraction solution derived from the reaction solution containing component A, component B, component C and 20 μl of supernatant fraction recovered in Example 4(2) is referred to as “(XII) metabolism solution (A1);” further, the fraction solution derived from the reaction solution containing no component A, no component B, no component C and no supernatant fraction recovered in Example 4(2) is referred to as “(XII) control solution (A1)”) were analyzed on a HPLC. Compared to the concentration of compound (XII) detected from (XII) control solution (A1), the concentration of compound (XII) detected from (XII) metabolism solution (A1) was lower. Further a peak, which was not detected from the (XII) control solution (A1), was detected from the (XII) metabolism solution (A1). Mass spectrometry was conducted for the compound contained in such a peak. […]
Other than utilizing 20 μl of the supernatant fraction recovered in Example 32(2) instead of 20 μl of the supernatant fraction recovered in Example 4(2), the reaction solutions were prepared and maintained in accordance with the method described in Example 41(2). […] Compared to the concentration of compound (XII) detected from (XII) control solution (A11), the concentration of compound (XII) detected from (XII) metabolism solution (A11) was lower. Further a peak, which was not detected from the (XII) control solution (A11), was detected from the (XII) metabolism solution (A11). […]

The test system of data set [3] is present invention protein (A1). The format is in vitro ADME, Streptomyces phaeochromogenes IFO12898. To be noted: E. coli JM109/pKSN657F cell suspension, compound at 100 ppm, shaking at 30° C., ethyl acetate layer, HPLC. As to the method:
E. coli JM109/pKSN657F was cultured overnight at 37° C. in 3 ml of TB medium containing 50 μg/ml of ampicillin. A milliliter (1 ml) of the obtained culture medium was transferred to 100 ml of TB medium containing 50 μg/ml of ampicillin and cultured at 26° C. When OD660 reached about 0.5, 5-aminolevulinic acid was added to the final concentration of 500 μM, and the culturing was continued. Thirty (30) minutes thereafter, IPTG was added to a final concentration of 1 mM, and there was further culturing for 20 hours.
The cells were recovered from the culture medium, washed with 0.1M tris-HCl buffer (pH7.5) and suspended in 10 ml of 0.1M Tris-HCl buffer containing 1% glucose. Compound (VI) was added to the obtained cell suspension to a final concentration of 100 ppm and that was incubated with shaking at 30° C. At each of 0 hours after and 1 day after the start of shaking, 2 ml of the cell suspension were fractioned. Fifty microliters (50 μl) of 2N HCl were added to each and those were extracted with 2 ml of ethyl acetate. The obtained ethyl acetate layers were analyzed on a HPLC under reaction condition 1. Compared to the concentration of compound (VI) detected from the ethyl acetate layer prepared from the cell suspension at 0 hours after the start of shaking, the concentration of compound (VI) detected from the ethyl acetate later prepared from the cell suspension at 1 day after the start of shaking was lower. Further a peak, which was not detected from the ethyl acetate layer prepared from the cell suspension at 0 hours after the start of shaking, was detected from the ethyl acetate layer prepared from the cell suspension at 1 day after the start of shaking Mass spectrometry of the compound contained in said peak was conducted. […]
Other than utilizing compound (VIII) instead of compound (VI), there was conducted in accordance with the method described in Example 41(6), a culturing of E. coli JM109/pKSN657F, preparation of the cell suspension solution, incubation with shaking of the cell suspension solution to which compound (VIII) was added, reagent preparation from the cell suspension solution and HPLC analysis of the reagents. Compared to the concentration of compound (VIII) detected from the ethyl acetate layer prepared from the cell suspension at 0 hours after the start of shaking, the concentration of compound (VIII) detected from the ethyl acetate layer prepared from the cell suspension at 1 day after the start of shaking was lower. Further two peaks, which were not detected from the ethyl acetate layer prepared from the cell suspension at 0 hours after the start of shaking, were detected from the ethyl acetate layer prepared from the cell suspension at 1 day after the start of shaking Mass spectrometry of the compounds contained in said peaks were conducted. […]

For the compound `Cn1c(C(F)(F)F)cc(=O)n(-c2c(F)cc(Cl)c3oc(C(=O)O)cc23)c1=O` [compound (XVII)], in data set [1], the “concentration of the compound detected from metabolism solution (A1) compared to control solution (A1)” value is recorded as “lower”. For the same compound, the “concentration of the compound detected from metabolism solution (A11) compared to control solution (A11)” value in data set [2] is reported as “lower”. `C#CCN1C(=O)COc2ccc(-n3c(=O)cc(C(F)(F)F)n(C)c3=O)cc21` [compound (XI)]: in data set [3], the “concentration of the compound detected from the cell suspension at 1 day compared to 0 hours after the start of shaking” value is “lower”.

`COC(=O)C1(C)Cc2c(c(Cl)cc(F)c2-n2c(=O)cc(C(F)(F)F)n(C)c2=O)O1` (stereo not shown) [compound (VIII)]: the “concentration of the compound detected from the cell suspension at 1 day compared to 0 hours after the start of shaking” value in data set [3] was “lower”. Turning to `CCc1ccc(COc2ccc(-n3c(=O)cc(C(F)(F)F)n(C)c3=O)cc2)c(OC(C)C(=O)OC)c1` (stereo not shown) [compound (VI)], the “concentration of the compound detected from the cell suspension at 1 day compared to 0 hours after the start of shaking” value in data set [3] is on record as “lower”. Consider `COC(=O)CO/C(C)=C(/Oc1cc(-n2c(=O)cc(C(F)(F)F)n(C)c2=O)c(F)cc1Cl)C(=O)O` [compound (XVI)], for which the “concentration of the compound detected from metabolism solution (A1) compared to control solution (A1)” value in data set [1] was “lower”. Further, in data set [2], the “concentration of the compound detected from metabolism solution (A11) compared to control solution (A11)” value is on record as “lower”.
